Molecules are shown by their SMILES.

One test relates to γ-H2A.X in H358 cells. Nature of the test: double strand break / gamma-H2A.X Western and co-immunoprecipitation. Particulars: 18 hours post-start; 1a 50 μM, 5FU 2 μM, cisplatin 2 μM, camptothecin 5 nM. In kind it is cell-based. How it is done: Also shown are controls for no treatment (“c” minus 1a) or treatment with 1a only (“c” plus 1a). Each lane represents 60 μg protein. […] Each lane represents 60 μg protein.
To measure DSB repair, cells were incubated for 1 hour with 10 μM camptothecin to induce DSBs, followed by incubation in the presence or absence of 50 μM 1a. At fixed times, histones were prepared by extraction in 0.2M H2SO4 as described previously and 50 μg extract was analyzed by 12% SDS-PAGE followed Western analysis as described previously, using rabbit polyclonal anti-γ-H2A.X [phosphor ser 139] (Novus Biologicals, Littleton, Colo.) or anti-H3 (Upstate Biotechnology, Inc, Lake Placid, N.Y.). Band intensities were quantitated digitally. To study acetylation of γ-H2A.X, we carried out co-immunoprecipitation analysis using 50 μg extract protein in immunoprecipitation buffer (10 mM sodium phosphate pH 7, 0.15 M NaCl, 0.1% SDS, 1% NP40, 1% sodium deoxycholate, aprotinin, 1 mM PMSF, complete protease inhibitors (Roche) using immobilized anti-acetyl-lysine (Millipore, Temecula, Calif.) in the immunoprecipitation step. The immunoprecipitated material was then analyzed as for Western analysis using anti γ-H2A.X.
Double strand breaks (DSBs) can be formed by a variety of DNA damaging agents, including camptothecin, cisplatin, 5FU, and UVC radiation (Avemann K, et al., 1988, Mol Cell Biol, 8: 3026-34; Bogdanov K V, et al. 1997, Br J Haematol, 98:869-72; Pavon M A, et al., Int J Cancer, 2008, 123:1068-79) implying that DSB repair may play a role in reducing their cellular toxicity. To examine how 1a treatment affects DSB repair in H358 cells we made use of the fact that the histone variant, H2A.X becomes phosphorylated at sites of double strand breaks (denoted γ-H2A.X), and can be detected by immunoblot analysis of acid extracted cells (Rogaku E P, et al., 1999, J Cell Biol, 146:905-16). […] Total H3 levels and H2A.X levels (control) are unaffected by these treatments (FIG. 4B). […]

Test [1] concerns MDA MB-435 breast cancer cells. Nature of the test: 72 hr viability assay. In kind it is cell-based. Conditions: DFMO 100 μM, 5FU 2 μM 18 hrs, doxorubicin 100 nM 18 hr.
For the next test, the system named is MCF7 breast cancer cells. Conditions: single agent; DFMO 100 μM, 5FU 2 μM 18 hrs, doxorubicin 100 nM 18 hr; spd-2a with no siRNA or control siRNA. How it is done:
(A) [^3H]-thymidine incorporation into DNA of H358 cells (left panel) or MCF-7 cells (right panel) during a 6 hour pulse ending at the indicated time points after initiation of treatment. Treatments were 50 μM 1a alone, 5 nM camptothecin alone (CPT, 18 hours), 50 μM 1a+5 nm CPT (18 hours). Control cells were left untreated. (B) 2-day 96-well viability assays of H358 cells (left panel) or MCF-7 cells (right panel) grown in presence of increasing concentrations of 1a (continuous), with or without an 18-hour treatment with 5 nM camptothecin (CPT). Cell viability, represented as a percent of untreated cell viability (i.e., no 1a, no CPT), was determined 2 days post-start of treatment by the MTS bioconversion assay (MTS=(3-(4,5′-dimethylthiazol-2-yl)-5-(3-carboxymethoxylphenyl-2-(4-sulfophenyl)-2H-tetrazolium salt). Each data point represents the average of triplicate wells. Assays were carried out under conditions such that untreated cells remained in exponential growth. (C) [^3H]-thymidine incorporation into DNA of H358 cells carried out as in part “A”. Treatment consisted of 1a alone (50 μM), or cisplatin (2 μM, 1 hour, 15 minutes) alone or together with 1a (Panel 1); or UVC (40 J/m^2), alone or together with 1a (Panel 2); or 5-fluorouracil (5FU, 2 μM, 18 hours) alone or together with 1a (Panel 3), or Taxotere™ (5 nM, 18 hours), alone or together with 1a (Panel 4). Control cells were left untreated. Symbols are as follows: (-◯-) untreated control; (-●-) 50 μM 1a, (-∇-) drug or UVC alone; (-▾-) combination 1a+drug or UVC.
Viability was measured 3 days after the start of treatment and is expressed as a percentage of control (untreated) cell viability.
Each point is average of triplicates.
Date of exp: 7-17-2010; located p.21 in Hat notebook: KB-2 (2010-2011).
Cells were plated in 96-well plates (3000 cells per well) and incubated 18 hours with or without 5 nM camptothecin (Sigma, St Louis, Mo.). Triplicate wells were then treated with varying doses of 1a (from 0-50 μM). Control cells received neither 1a nor camptothecin. 2-day viability was determined by the MTS assay as previously (Saadatmandi et al., 2002, Cancer Gene Therapy, 9: 830-9) and expressed as a percentage of control cell viability.
The present inventors carried out 96-well viability assays as we have previously described (Saadatmandi et al, Cancer Gene Therapy (2002) 9:830-9), in which MCF7 breast cancer cells were plated at 3000 cells per well. After overnight attachment, triplicate wells were treated with increasing doses of inhibitor 1a. Control wells were left untreated. After 3 days, cell viability was measured by the MTS assay, which measures the bioconversion of an uncolored substrate to a colored formazan derivative, and is proportional to cell number. […]

Another test has as its system DLD-1 colon cancer. Nature of the test: subcutaneous DLD-1 tumor model in nude mice. In kind it is in vivo, nude mouse. Conditions: DFMO alone, intratumoral, 2 mg/kg. As for the experimental part:
Tumors were initiated By subcutaneous implantation of […] DLD-1 colon cancer cells. […] Tumors were measured and volumes calculated as in FIG. 14.
Tumors were initiated by injecting 10^6 DLD-1 cells (from ATCC) per mouse (female nude mouse, 4-5 weeks, Harlan Labs) subcutaneously in the flank. (A) When the average tumor size reached 26 mm^3, animals were randomized into 2 groups (3 per group). One group was left untreated and served as the control (-●-). […] Tumors were measured bidirectionally at 2-3 day intervals and tumor volumes were calculated (v=½L×w^2). A paired t-test was used to evaluate the significance of the differences between the two groups of animals. […] (B) Tumors were initiated as in part (A). When tumors reached an average size of about 30 mm^3, animals were randomized into three groups of 2 animals each. The control group (-●-) received no treatment. The DFMO group (-▪-) received intratumoral injections of DFMO (2 mg/kg) on days 1, 7, 9 (5 PM), and 2, 8, 10 (9 AM, 5 PM). […] Tumors were measured and volumes calculated as in part (A). A paired t-test was used to evaluate the significance of the difference between the curves.

Test [2] concerns endogenous HATs associated with solubilized chromatin. Conditions: literature (Bandyopadhyay et al 2009; Parello et al. 1990); cited from earlier work.
In another test the test system is H358 lung cancer cells. Nature of the test: [3H]-thymidine incorporation DNA synthesis assay. Conditions: data not shown. In kind it is cell-based. How it is done: (A) Structures of 1a, and the acetylated side chain of a lysine residue within the polypeptide chain of a protein targeted by the acetylating enzyme (R1 and R2 are the main chain elements on both sides of the lysyl residue). (B) [^3H]-thymidine incorporation into DNA of H358 cells pulsed for 6 hrs at three different time points after the addition of increasing concentrations of 1a, i.e., at 6-12 hrs (12 hr curve), at 18-24 hours (24 hr curve), or at 42-48 hrs (48 hr curve). Incorporation is represented as a percentage relative to control (untreated) cells. (C) Cell cycle analysis of propidium iodide-stained cells harvested at various times after addition of 50 μM 1a. % of cells in G1, S, and G2 represents the average of two independent profiles. (D) Western analysis of histone H3 lysine 9 acetylation, histone H3 lysine 56 acetylation, histone H3 lysine 9 methylation, and total histone H3, before “c” or at the indicated times after addition of 50 μM 1a. Each lane represents 60 μg cellular protein.
Control cells were left untreated. […] Control cells were left untreated.
Cells were either labeled immediately before treatment (starting DNA synthesis rate), or subjected to the indicated treatments and then pulsed on successive days until day 4. DNA synthesis is represented as the percent of starting DNA synthesis rate. Viability was determined for each treatment condition 24 hours post-start of treatment by the trypan blue exclusion assay, with percentages of viable cells indicated to the right of the graph.
H358 cells (2,000/well) in 96-well plates were treated with 1, 10 or 50 μM of spd-1a, spd-2a, spd-3a, spm3, or spm2 for 12 hours. Triplicate wells of cells were pulsed 6 hours with 0.5 μCi [^3H]-thymidine (NEN, Boston Mass.) post-start of drug treatment, and harvested onto filter paper using a Brandel Harvester and subjected to scintillation counting. Untreated cells were pulsed 0-6 hrs to establish the initial rate of incorporation.
Cells were plated in 96-well plates (2000 cells per well to insure conditions for exponential growth for untreated cells over the time course of the experiment) and exposed to the following treatments: 1a (50 μM); camptothecin (Sigma, St Louis, Mo. 5 nM, 18 hours); cisplatin (Platinol, obtained through local pharmacies, 2 μM, 1 hour 15 minutes), 5-fluorouracil (5FU, Adrucil™, obtained through local pharmacies, 2 μM, 1 hour 15 minutes), Taxotere (provided by the late Dr. Pierre Potier, 5 nM, 18 hours). UVC treatment (40 J/m^2) using a Stratalinker™, Stratagene, La Jolla, Calif.) was carried using medium lacking phenol red. At 0-6 hr, 18-24 hr (day 1), 42-48 hr […], 66-72 hr (day 3), and 90-96 hr (day 4) post-start of treatment, triplicate wells were incubated with 0.5 μCi [^3H]-thymidine (NEN, Boston Mass.), harvested onto filter paper, and subjected to scintillation counting. Trypan blue exclusion assays for cell membrane integrity were carried out as known in the art.
The present inventors used [^3H]-thymidine incorporation assays to examine DNA synthesis in H358 lung cancer cells in the presence of varying concentrations of 1a. Cells were pulsed for 6 hours with [^3H]-thymidine at three different time points after the addition of 1a (i.e., at 6-12 hours, at 18-24 hours, and at 42-48 hours). The incorporation of [^3H]-thymidine into DNA decreased with increasing concentrations of 1a at all three time points, with the maximal effect occurring with the 6-12 hour pulse (FIG. 2B).
We then used [^3H]-thymidine incorporation assays to examine DNA synthesis in H358 lung cancer cells in the presence of 1a alone, or together with an 18 hour exposure to the DNA damaging drug, camptothecin (CPT), a plant alkaloid from which an important class of topoisomerase I-targeted chemotherapeutic agents (Hycamtin [topotecan] and Camptosar [irinotecan]) has been derived (Garcia-Carbonero, et al, 2002, Clin Cancer Res 8: 641-61). […]
A general note: Incorporation of labelled thymidine or its analogues reports DNA synthesis.

For the compound `O=c1[nH]cc(F)c(=O)[nH]1` [5FU, 5-Fluorouracil], the “γ-H2A.X level, single agent” value in the test with γ-H2A.X in H358 cells is “weakly detectable”. The “72 hr cell viability, single agent” value in test [1] was “minimal effects”. Besides, the “3-day / 72 hr cell viability, single agent” value (shortened to “3-day / 72 hr cell viability”) in the test on MCF7 breast cancer cells was “minimal effects”.
On to `N.N.[Cl][Pt][Cl]` [cisplatin, cis-diamminedichloro-platinium], for which the “γ-H2A.X level, single agent” value in the test with γ-H2A.X in H358 cells was “weakly detectable”.
On to `COc1cccc2c1C(=O)c1c(O)c3c(c(O)c1C2=O)C[C@@](O)(C(=O)CO)C[C@@H]3O[C@H]1C[C@H](N)[C@H](O)[C@H](C)O1` [doxorubicin], for which, in test [1], the “72 hr cell viability, single agent” value is on record as “minimal effects”. Moreover, in the test on MCF7 breast cancer cells, the “3-day / 72 hr cell viability” value was “minimal effects”.
With `NCCC[C@](N)(C(=O)O)C(F)F` [DFMO, α-difluoromethylornithine], the “tumor volume difference versus control” value with DLD-1 colon cancer is given as “not significant”. For the same compound, in test [1], the “72 hr cell viability, single agent” value is on record as “ineffective”. In the test with MCF7 breast cancer cells, the “3-day / 72 hr cell viability” value is “ineffective”.
For the compound `CC(C)(COP(=O)(O)OP(=O)(O)OC[C@H]1O[C@@H](n2cnc3c(N)ncnc32)[C@H](O)[C@@H]1OP(=O)(O)O)[C@@H](O)C(=O)NCCC(=O)NCCSCC(=O)NCCCCNCCCN` [1b, spermidine [N8]-CoA], the “inhibitory activity against endogenous HAT” value in test [2] is “comparable inhibitory activity”. In addition, the “inhibitory activity against DNA synthesis in vivo, isomers compared” value with H358 lung cancer cells is “comparable inhibitory activity”.

(Values after patent US9107879B1, “Methods of increasing the cytotoxicity of chemotherapeutic agents with multisubstrate inhibitors of histone, protein-lys, polyamine acetylation, and polyamine metabolism” (Vanderbilt University, priority 2010, dated 2015).)
